Results as given in paper PMC12592319, “Predicting Food Effect On Oral Drug Absorption For Solubility-Epithelial Membrane Permeation-Limited Cases With Bile Micelle Solubilization” (Pharmaceutical Research, 2025).
Converted amounts (≈) assume the structure as drawn. Like-named read-outs stand apart in the source and are kept apart here.

How the values were obtained:
[1] = FaRLS diagnosis by Fa equation and Peff equation (Table S3, dose number); conditions: for Dose number, Fasted / Dose number, Fed: clinical dose; for Dose number, Fasted: Sdissolv in FaSSIF; for Dose number, Fed: Sdissolv in FeSSIF; for fraction unbound: human, bile micelles in FaSSIF, pH 6.5
[2] = clinical AUC ratio fed/fasted, humans; cited from earlier work
[3] = pKa measurement (SiriusT3, UV-metric/pH-metric titration); type: physicochemical; conditions: acidic pKa; ionic strength 0.168 mol/L, 37°C; read-out: pKa (A)
Experimental: The pKa measurements were performed using a SiriusT3 automatic titrator, with a spectrometric (UV-metric) or titration (pH-metric) method. The UV-metric method used a fiber optic dip probe, a deuterium lamp UV light source, and a photodiode array detector to capture the absorption spectra of a sample solution over the course of three titrations, across the pH range 2.0–12.0. […] Titrations were carried out under a controlled temperature of 37 ± 0.2°C.
SiriusT3 software v2.0 was used to apply principal component analysis to the spectral data to resolve the molar absorptivity spectra of each sample species and determine the psKa values of the compounds in the co-solvent. The pKa values under aqueous conditions were calculated from the co-solvent data using the Yasuda-Shedlovsky extrapolation method.
Additional potentiometric titrations were performed for each drug, which confirmed that no additional non-UV active pKas were present within the titration pH range.

[4] = assumed to be the same as Caco-2 Papp, cited from earlier work
[5] = Octanol-water partition/distribution coefficient (logPoct, logDoct); type: physicochemical; conditions: calculated from logPoct and pKa using the Henderson-Hasselbalch equation
From the text: Table II Physicochemical Properties and Caco-2 Permeability of Model Drugs | column: logDoct,pH 6.5^c

[6] = cited from earlier work
[7] = μFLUX dissolution-permeation flux experiment; conditions: for kdiss: calculated from the initial dissolution rate in μFLUX; for Ratio (fed/fasted) CD,final / Ratio (fed/fasted) JμFLUX: FeSSIF/FaSSIF, μFLUX dose 1/10 of the clinical dose; for fraction unbound: pH 6.5, fu; for CD,final: measured after filtration, 1/10 of clinical dose, mean ± S.D., N = 3; for Pep,u,μFLUX: Peff,μFLUX/fu; for JμFLUX: average of 90 to 120 min (pranlukast 210 to 240 min); for Peff,μFLUX: calculated based on CD,final; for Time after which CD reached a plateau: donor solution
Experimental: The μFLUX apparatus (pION Inc., MA, USA) (Fig. 2) was used for dissolution-permeation flux experiments. The membrane filter (1.54 cm^2) was coated with 25 μL of a 10% soybean lecithin-decane solution [72]. FaSSIF or FeSSIF (15 mL) was added to the donor chamber. The acceptor sink buffer (volume (VA) = 15 mL) was added to the acceptor chamber. The temperature was maintained at 37°C. The stirring rotation speed was set to 150 rpm. Each drug formulation (1/10 of the clinical dose) was added after being gently crushed by mortar and pestle. The drug concentrations in the donor (CD) and acceptor (CA) solutions were monitored using a UV probe for 2 h, except for pranlukast (4 h) (2 mm (donor) and 20 mm (acceptor) apertures). […] The final drug concentration in the donor chamber (CD, final) was measured after filtration as described above.
The flux value (JμFLUX) was calculated from the slope of the drug concentration–time curve in the acceptor solution in the last 30 min.19 JμFLUX=ΔCA/ΔTVA/SA where SA is the membrane surface area (1.54 cm^2). The effective permeability in μFLUX (Peff, μFLUX) value was calculated from JμFLUX and CD, final.20 Peff,μFLUX=JμFLUX/CD,final

Caco-2 = system: Caco-2; design: method as in PMID 9795088, PMID 10767597, PMID 15032311; conditions: cited from earlier work
[8] = Equilibrium solubility measurement (shake-flask) in blank FaSSIF, FaSSIF, FeSSIF; type: physicochemical; conditions: for solubility at 72 h: thermodynamic from solid, pH 6.5, 37°C, mean ± S.D., N = 3; for Ratio (fed/fasted) Sdissolv: FeSSIF/FaSSIF, corresponds to Fafed/Fafasted predicted by Eq. (18)
Experimental: A shake-flask method was used for equilibrium solubility measurement. Each drug (10 mg) was added to the 15 mL test tube. Blank FaSSIF (28.7 mM phosphate buffer, pH 6.5 adjusted by NaOH), FaSSIF (3 mM TC, 0.75 mM EL in blank FaSSIF), or FeSSIF (15 mM TC, 3.75 mM EL in blank FaSSIF) was added. The test tube was placed horizontally in a reciprocal shaker. After shaking for 72 h at 37°C (at 90 rpm, motion width: 2.5 cm), the sample was filtered (hydrophilic PVDF, φ = 4.0 mm, pore size: 0.22 µm, Merck). The first few droplets were discarded to avoid filter adsorption. The concentration of each drug was measured by UV absorbance. […] After measuring the final pH (9615S-10D Standard ToupH electrode (HORIBA Advanced Techno Co., Ltd., Kyoto, Japan)), the residual particles were collected by vacuum filtration and analyzed by powder X-ray diffraction (PXRD) (Supplemental Information Figure S1).

[9] = design: method as in PMID 31863733; conditions: previous prediction; cited from earlier work
[10] = design: method as in PMID 20307655, PMID 19465123, PMID 17828749, PMID 23994640; conditions: pH 6.5; cited from earlier work
[11] = bile micelles in FaSSIF, FaSSIF, calculated by Eq. (9) (Sdissolv,u/Sdissolv)
[12] = bile micelles in FeSSIF, FeSSIF, calculated by Eq. (9) (Sdissolv,u/Sdissolv)
[13] = FaSSIF, read-out: Solubility, FaSSIF
[14] = FeSSIF, read-out: Solubility, FeSSIF
[15] = blank FaSSIF, read-out: Solubility, Blank FaSSIF

COc1ccccc1Oc1c(NS(=O)(=O)c2ccc(C(C)(C)C)cc2)nc(-c2ncccn2)nc1OCCO [Bosentan]
Dn ([1]; Fasted): 5.9
Do ([1]; Fasted): 23
Pep ([1]; Fasted): 0.73 10^-6 cm/s
Pep' ([1]; Fasted): 7.3 10^-6 cm/s
Dn ([1]; Fed): 9.1
Do ([1]; Fed): 9.2
Pep ([1]; Fed): 0.34 10^-6 cm/s
Pep' ([1]; Fed): 3.4 10^-6 cm/s
Dose number, Fasted [1]: 23
Dose number, Fed [1]: 9
fraction unbound [1]: 0.73
Ratio (fed/fasted) AUCr [2]: 1.1
pKa [3]: 4.87
Pep,u ([4]; Fasted): 1 10^-6 cm/s
Pep,u ([4]; Fed): 1 10^-6 cm/s
logDoct,pH 6.5 [5]: 2.2
logPoct [6]: 3.8
kdiss ([7]; Fasted): 1.695 h⁻¹
Ratio (fed/fasted) CD,final [7]: 1.9
Ratio (fed/fasted) JμFLUX [7]: 0.91
kdiss ([7]; Fed): 2.599 h⁻¹
fraction unbound [7, 11]: 0.73
fraction unbound [7, 12]: 0.34
CD,final ([7]; donor FaSSIF pH 6.5): 49 ± 0 µg/mL
Pep,u,μFLUX ([7]; donor FaSSIF): 18 ± 2 10^–5 cm/s
JμFLUX ([7]; donor FaSSIF): 6.7 ± 0.8 10–^3 μg/cm^2/s
Peff,μFLUX ([7]; donor FaSSIF): 14 ± 2 10^–5 cm/s
CD,final ([7]; donor FeSSIF pH 6.5): 95 ± 0 µg/mL
Pep,u,μFLUX ([7]; donor FeSSIF): 19 ± 1 10^–5 cm/s
JμFLUX ([7]; donor FeSSIF): 6.1 ± 0.2 10–^3 μg/cm^2/s
Peff,μFLUX ([7]; donor FeSSIF): 6.4 ± 0.2 10^–5 cm/s
Time after which CD reached a plateau [7]: 20 min
Caco-2 Papp (Caco-2): 1 [52] 10^–6 cm/s
solubility at 72 h [8, 13]: 41 ± 1 µg/mL (≈ 74.3 µM)
solubility at 72 h [8, 14]: 87 ± 1 µg/mL (≈ 158 µM)
Ratio (fed/fasted) Sdissolv [8]: 2.1
solubility at 72 h [8, 15]: 30 ± 1 µg/mL (≈ 54.4 µM)

Cc1ccc(-c2cc(C(F)(F)F)nn2-c2ccc(S(N)(=O)=O)cc2)cc1 [Celecoxib]
Dose number, Fasted [1]: 67
Dose number, Fed [1]: 25
Ratio (fed/fasted) AUCr [2]: 1.6
Food effect predicted by the GUT framework [9]: 2.3
logDoct,pH 6.5 [5]: 3.5
logPoct [6]: 3.5
Ratio (fed/fasted) CD,final [7]: 1.7
Ratio (fed/fasted) JμFLUX [7]: 1.7
fu ([7]; FeSSIF, calculated by Eq. (9) (Sdissolv,u/Sdissolv)): 0.031
fraction unbound [7, 11]: 0.069
CD,final ([7]; donor FaSSIF pH 6.5): 37 ± 1 µg/mL
JμFLUX ([7]; donor FaSSIF): 6.7 ± 0.4 10–^3 μg/cm^2/s
Peff,μFLUX ([7]; donor FaSSIF): 18 ± 2 10^–5 cm/s
CD,final ([7]; donor FeSSIF pH 6.5): 62 ± 1 µg/mL
JμFLUX ([7]; donor FeSSIF): 11 ± 1 10–^3 μg/cm^2/s
Peff,μFLUX ([7]; donor FeSSIF): 18 ± 1 10^–5 cm/s
Time after which CD reached a plateau [7]: 20 min
Caco-2 Papp (Caco-2): 18 [56] 10^–6 cm/s
Solubility, Blank FaSSIF [10]: 3.2 µg/mL (≈ 8.39 µM)
Solubility, FaSSIF [10]: 46.2 µg/mL (≈ 121 µM)
Solubility, FeSSIF [10]: 103 µg/mL (≈ 270 µM)
Ratio (fed/fasted) Sdissolv [8]: 2.2

CCc1c(Cl)c(O)c(Cl)c(O)c1C(=O)O[C@H]1[C@H](O)[C@H](OC)[C@H](OC/C2=C\C=C\C[C@H](O)/C(C)=C/[C@H](CC)[C@@H](O[C@@H]3OC(C)(C)[C@@H](OC(=O)C(C)C)[C@H](O)[C@@H]3O)/C(C)=C/C(C)=C/C[C@@H]([C@@H](C)O)OC2=O)O[C@@H]1C [Fidaxomicin]
Dn ([1]; Fasted): 3.7
Do ([1]; Fasted): 20
Pep ([1]; Fasted): 0.055 10^-6 cm/s
Pep' ([1]; Fasted): 0.55 10^-6 cm/s
Dn ([1]; Fed): 9.3
Do ([1]; Fed): 7.2
Pep ([1]; Fed): 0.024 10^-6 cm/s
Pep' ([1]; Fed): 0.24 10^-6 cm/s
Dose number, Fasted [1]: 20
Dose number, Fed [1]: 7
fraction unbound [1]: 0.6
Ratio (fed/fasted) AUCr [2]: 1.0
pKa [3]: 5.15
Pep,u ([4]; Fed): 0.092 10^-6 cm/s
logDoct,pH 6.5 [5]: 2.3
logPoct [6]: 3.7
kdiss ([7]; Fasted): 1.068 h⁻¹
Pep,u,μFLUX less in the fed condition than in the fasted condition ([7]; FeSSIF vs FaSSIF): about 40%
Ratio (fed/fasted) CD,final [7]: 3.1
Ratio (fed/fasted) JμFLUX [7]: 0.81
kdiss ([7]; Fed): 2.660 h⁻¹
fraction unbound [7, 11]: 0.6
fraction unbound [7, 12]: 0.26
CD,final ([7]; donor FaSSIF pH 6.5): 72 ± 0 µg/mL
Pep,u,μFLUX ([7]; donor FaSSIF): 17 ± 2 10^–5 cm/s
JμFLUX ([7]; donor FaSSIF): 7.4 ± 0.7 10–^3 μg/cm^2/s
Peff,μFLUX ([7]; donor FaSSIF): 10 ± 1 10^–5 cm/s
CD,final ([7]; donor FeSSIF pH 6.5): 220 ± 0^ h μg/mL
Pep,u,μFLUX ([7]; donor FeSSIF): 10 ± 1 10^–5 cm/s
JμFLUX ([7]; donor FeSSIF): 6.0 ± 0.7 10–^3 μg/cm^2/s
Peff,μFLUX ([7]; donor FeSSIF): 2.7 ± 0.3 10^–5 cm/s
Time after which CD reached a plateau [7]: 20 min
solubility at 72 h [8, 13]: 77 ± 1 µg/mL (≈ 72.8 µM)
solubility at 72 h [8, 14]: 178 ± 2 µg/mL (≈ 168 µM)
Ratio (fed/fasted) Sdissolv [8]: 2.3
solubility at 72 h [8, 15]: 46 ± 1 µg/mL (≈ 43.5 µM)
